Results on five compounds are retold here after article PMC3593249 (Biochemical pharmacology, 2013).

One assay concerns α7 nAChR. As to conditions: cited from earlier work.
Assay [1] has as its target T1, WT α7 nAChR (Homo sapiens, UniProt P36544). The experiment in a line: Concentration-response curves. Type of assay: cell-based. As to conditions: for Imax: maximal response relative to the maximal response from ACh (ACh = 1); for EC50: net charge CRC, potency for agonism, parenthetical = curve-fit error.
In assay [2] the target is T2, α7 nAChR S36G mutant (Homo sapiens, UniProt P36544, S58G). Type of assay: cell-based. As to conditions: for Imax: maximal response relative to the maximal response from ACh (ACh = 1); for EC50: net charge CRC, parenthetical = curve-fit error.
T2 sequence (P36544 23-502 S58G): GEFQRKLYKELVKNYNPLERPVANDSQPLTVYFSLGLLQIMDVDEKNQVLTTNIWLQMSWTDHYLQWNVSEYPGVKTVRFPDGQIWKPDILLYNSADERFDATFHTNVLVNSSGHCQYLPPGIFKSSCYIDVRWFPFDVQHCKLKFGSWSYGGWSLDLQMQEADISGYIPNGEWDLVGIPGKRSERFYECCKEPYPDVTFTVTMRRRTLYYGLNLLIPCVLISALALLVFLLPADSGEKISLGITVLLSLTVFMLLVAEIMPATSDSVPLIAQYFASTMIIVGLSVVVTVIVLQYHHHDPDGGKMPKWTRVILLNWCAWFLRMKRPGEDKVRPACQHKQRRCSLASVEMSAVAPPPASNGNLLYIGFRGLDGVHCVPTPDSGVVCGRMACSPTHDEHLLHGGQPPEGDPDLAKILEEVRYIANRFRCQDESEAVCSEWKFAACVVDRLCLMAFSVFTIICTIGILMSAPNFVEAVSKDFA
The target of assay [3] is T3, α7 nAChR S36A mutant (Homo sapiens, UniProt P36544, S58A). Kind of assay: Concentration-response curves. Particulars: for Imax: maximal response relative to the maximal response from ACh (ACh = 1); for EC50: net charge CRC, parenthetical = curve-fit error. Type of assay: cell-based.
T3 sequence (P36544 23-502 S58A): as the sequence (P36544 23-502 S58G) above, with G36A counted along it
Assay [4] concerns the target T4, α7 nAChR S36C mutant (Homo sapiens, UniProt P36544, S58C). Kind of assay: Concentration-response curves. As to conditions: for Imax: maximal response relative to the maximal response from ACh (ACh = 1); for EC50: net charge CRC, parenthetical = curve-fit error. Type of assay: cell-based.
Assay [5] concerns the target T5, α7 nAChR S36V mutant (Homo sapiens, UniProt P36544, S58V). Kind of assay: Concentration-response curves. Type of assay: cell-based. Particulars: for Imax: maximal response relative to the maximal response from ACh (ACh = 1); for EC50: net charge CRC, parenthetical = curve-fit error.
In assay [6] the target is T6, α7 nAChR S36I mutant (Homo sapiens, UniProt P36544, S58I). Kind of assay: Concentration-response curves. Type of assay: cell-based. Particulars: for Imax: maximal response relative to the maximal response from ACh (ACh = 1); for EC50: net charge CRC, parenthetical = curve-fit error.
T6 sequence (P36544 23-502 S58I): as the sequence (P36544 23-502 S58G) above, with G36I counted along it
Assay [7] deals with T7, α7 nAChR S36T mutant (Homo sapiens, UniProt P36544, S58T). The experiment in a line: Concentration-response curves. Particulars: for Imax: maximal response relative to the maximal response from ACh (ACh = 1); for EC50: net charge CRC, parenthetical = curve-fit error. Type of assay: cell-based.
T7 sequence (P36544 23-502 S58T): as the sequence (P36544 23-502 S58G) above, with G36T counted along it
In assay [8] the target is T1, WT α7 nAChR. The experiment in a line: Residual desensitization. Type of assay: cell-based. As to conditions: for IC50: read-out: IC50 (RD curve), potency for producing long-lasting desensitization, 12 s applications.
Assay [9] deals with T2, α7 nAChR S36G mutant. The experiment in a line: Residual desensitization. Type of assay: cell-based. As to conditions: read-out: IC50 (RD curve), potency for producing long-lasting desensitization, 12 s applications.
The target in assay [10] is T3, α7 nAChR S36A mutant. The experiment in a line: Residual desensitization. Type of assay: cell-based. Particulars: read-out: IC50 (RD curve), potency for producing long-lasting desensitization, 12 s applications.
In assay [11] the target is T4, α7 nAChR S36C mutant. The experiment in a line: Residual desensitization. Particulars: read-out: IC50 (RD curve), potency for producing long-lasting desensitization, 12 s applications. Type of assay: cell-based.
Assay [12] addresses T5, α7 nAChR S36V mutant. The experiment in a line: Residual desensitization. As to conditions: read-out: IC50 (RD curve), potency for producing long-lasting desensitization, 12 s applications. Type of assay: cell-based.
The target in assay [13] is T6, α7 nAChR S36I mutant. The experiment in a line: Residual desensitization. Type of assay: cell-based. Particulars: read-out: IC50 (RD curve), potency for producing long-lasting desensitization, 12 s applications.
In assay [14] the target is T7, α7 nAChR S36T mutant. Kind of assay: Residual desensitization. Type of assay: cell-based. As to conditions: read-out: IC50 (RD curve), potency for producing long-lasting desensitization, 12 s applications.
Assay [15] deals with T1, WT α7 nAChR. The experiment in a line: Induction of Ds: 30 µM PNU-120596 applied after 5-minute drug bath. Type of assay: cell-based. Particulars: for desensitized state after high-concentration incubation (PNU-120596 response): high concentration: BA 300 µM, 4MeBA 100 µM.
Assay [16] addresses T1, WT α7 nAChR. The experiment in a line: 5-minute bath incubation, 1 mM ACh probe and post-control ACh applications. Type of assay: cell-based.
Assay [17] concerns the target T2, α7 nAChR S36G mutant. The description is as above. Type of assay: cell-based. Particulars: 30 µM drug bath, 5 minutes, then 1 mM ACh probe.

The structures appear in SMILES notation. “And” between values parts separate entries of the source, which are not always exact repeats. Identical values can stand only once.

T4 sequence (P36544 23-502 S58C): as the sequence (P36544 23-502 S58G) above, with G36C counted along it
T1 sequence (P36544 23-502): as the sequence (P36544 23-502 S58G) above, with G36S counted along it
T5 sequence (P36544 23-502 S58V): as the sequence (P36544 23-502 S58G) above, with G36V counted along it

Regarding `Oc1ccc(C=C2CCCN=C2c2cccnc2)c(O)c1` [2,4diOHBA, 3-(2,4-dihydroxybenzylidene)anabaseine], the RD production entry in the assay on α7 nAChR is “practically none”.
With `Cc1ccc(C=C2CCCN=C2c2cccnc2)cc1` [4MeBA, 3-(4-methylbenzylidene)anabaseine], the Imax at WT α7 nAChR [1] is on record as 0.14(0.01); on α7 nAChR S36G mutant [2], 0.31(0.02); at α7 nAChR S36A mutant [3] it was 0.19(0.04); on α7 nAChR S36C mutant [4], 0.14(0.02); on α7 nAChR S36V mutant [5], 0.15(0.04); on α7 nAChR S36I mutant [6], 0.088(0.007). For the same compound, the Imax on α7 nAChR S36T mutant [7] is listed as 0.19(0.02). The EC50 was 30 µM and 29 µM on WT α7 nAChR [1]; 9.5 µM on α7 nAChR S36G mutant [2]; 7.9 µM at α7 nAChR S36A mutant [3]; 5.5 µM on α7 nAChR S36C mutant [4]; 3.5 µM on α7 nAChR S36V mutant [5]; 17.6 µM at α7 nAChR S36I mutant [6]. Also, at α7 nAChR S36T mutant [7], the EC50 came out at 34 µM. Also, the “reduction of post-control ACh responses” value on WT α7 nAChR [8] (at concentration of greatest evoked response, approximately 300 µM) was 80%. For the same compound, the IC50 at WT α7 nAChR [8] amounted to 110 µM; at α7 nAChR S36G mutant [9] it was 51 µM; on α7 nAChR S36A mutant [10] it was 145 µM; at α7 nAChR S36C mutant [11], 52 µM; on α7 nAChR S36V mutant [12], 91 µM; at α7 nAChR S36I mutant [13], 153 µM. The IC50 on α7 nAChR S36T mutant [14] was found to be 450 µM. Also, the “desensitized state after high-concentration incubation (PNU-120596 response)” value at WT α7 nAChR [15] was “induced exclusively into Di”.
On to `Oc1ccc(/C=C2\CCCN=C2c2cccnc2)cc1` [4OHBA, (E)-3-(4-hydroxybenzylidene)anabaseine], for which the Imax on WT α7 nAChR [1] is given as 0.385(0.006); at α7 nAChR S36G mutant [2], 0.89(0.06); at α7 nAChR S36A mutant [3], 0.73(0.03); on α7 nAChR S36C mutant [4] it was 0.63(0.02); at α7 nAChR S36V mutant [5] it was 0.50(0.03); at α7 nAChR S36I mutant [6], 0.46(0.03). At α7 nAChR S36T mutant [7], the Imax is listed as 0.50(0.01). Moreover, the EC50 is 6 µM and 5.5 µM at WT α7 nAChR [1]; 0.53 µM on α7 nAChR S36G mutant [2]; 0.57 µM on α7 nAChR S36A mutant [3]; 0.75 µM on α7 nAChR S36C mutant [4]; 0.25 µM at α7 nAChR S36V mutant [5]; 2.3 µM on α7 nAChR S36I mutant [6]. Also, the EC50 on α7 nAChR S36T mutant [7] turned out to be 5.9 µM. In addition, at WT α7 nAChR [8] (at concentrations required for maximal evoked responses, 30 µM – 300 µM), the “reduction of post-control ACh responses” value is on record as 10–20%. The “IC50 (RD curve)” value on WT α7 nAChR [8] (potency for producing long-lasting desensitization, 12 s applications) is listed as “far greater than the concentration range studied”. Also, the IC50 at WT α7 nAChR [8] is > 300 µM; on α7 nAChR S36G mutant [9] it was 134 µM; on α7 nAChR S36A mutant [10], 203 µM; at α7 nAChR S36C mutant [11] it was 233 µM; at α7 nAChR S36V mutant [12], 61 µM; at α7 nAChR S36I mutant [13] it was > 300 µM. Moreover, the IC50 at α7 nAChR S36T mutant [14] was > 300 µM. Also, the “recovery during post-control ACh applications after 5-minute incubation” value at WT α7 nAChR [16] (30 µM drug bath, 5 minutes) is on record as “fully recovered”. The “post-control ACh responses, low versus high concentration incubation” value at WT α7 nAChR [16] (4OHBA low 3 µM, high 30 µM) is reported as “no significant difference”. The “ACh control responses after 5-minute incubation” value on α7 nAChR S36G mutant [17] was “nearly complete suppression of the ACh control responses”. Also, the “induction of Ds (response to PNU-120596 after drug bath)” value at WT α7 nAChR [15] (30 µM drug bath, 5 minutes, 30 µM PNU-120596) was “relatively little Ds”.
With `C(=C1CCCN=C1c1cccnc1)c1ccccc1` [BA, benzylidene anabaseine], the Imax on WT α7 nAChR [1] was 0.31(0.01); at α7 nAChR S36G mutant [2], 0.316(0.003); on α7 nAChR S36A mutant [3], 0.45(0.02); at α7 nAChR S36C mutant [4] it was 0.30(0.01); at α7 nAChR S36V mutant [5], 0.27(0.05); at α7 nAChR S36I mutant [6], 0.18(0.02). Moreover, the Imax at α7 nAChR S36T mutant [7] was 0.19(0.01). The EC50 at WT α7 nAChR [1] is 40 µM and 39 µM; on α7 nAChR S36G mutant [2], 44 µM; at α7 nAChR S36A mutant [3], 27 µM; at α7 nAChR S36C mutant [4] it was 22 µM; at α7 nAChR S36V mutant [5] it was 27 µM; on α7 nAChR S36I mutant [6], 81 µM. In addition, the EC50 at α7 nAChR S36T mutant [7] was found to be 68 µM. The half-inhibitory concentration (IC50) is 270 µM at WT α7 nAChR [8]; 357 µM on α7 nAChR S36G mutant [9]; 91 µM at α7 nAChR S36A mutant [10]; 189 µM at α7 nAChR S36C mutant [11]; 217 µM on α7 nAChR S36V mutant [12]; > 300 µM on α7 nAChR S36I mutant [13]. Besides, the IC50 on α7 nAChR S36T mutant [14] is 720 µM. Besides, the “desensitized state after high-concentration incubation (PNU-120596 response)” value at WT α7 nAChR [15] is on record as “induced exclusively into Di”.
Regarding `COc1ccc(/C=C2\CCCN=C2c2cccnc2)c(OC)c1` [GTS-21, 3-(2,4-dimethoxybenzylidene)anabaseine], in the assay on α7 nAChR, the RD production entry was “significant amounts of RD”.
